Patent US20250115571A1, “OXOPIPERAZINE DERIVATIVES” (Inthera Bioscience AG, priority 2017, published 2025)

How the values were obtained:
[1] = tested on: HCT116; test: 9-day colony survival assay (CFA); format: cell-based; conditions: Homo sapiens, HCT-116, 216 h, HCT116 (colon), read-out: GI50 (50% growth inhibition)
[2] = tested on: HCT116; test: 5-day cell proliferation assay (CTG); format: cell-based; conditions: Homo sapiens, HCT-116, 120 h, HCT116, Colorectal
Description: (§1) For screening using a proliferation assay, the cells used were cultured at 37° C. with 5% CO2, except for those being cultured with L-15 medium (37° C. and 100% air, TABLE 7). Compound stock solutions (10 mM) were made in sterile water, aliquoted and stored at room temperature. Cisplatin was used as reference Control. Plastic consumables, culture media and supplements were purchased from well-known suppliers (TABLE 8).
(§2) Cell seeding (day −1). When necessary, cells were trypsinized using standard methods (see e.g. example 01). Cells were collected and resuspended in 5-6 mL of appropriate culture medium, counted and diluted to the needed density. Fifty-four μl (microliter) cells were seeded per well in a 384-well plate. Extra four wells per cell line were seeded on an additional plate for Day 0 reading (baseline cell density). Cells were incubated at 37° C. overnight.
(§3) Compound treatment and Day 0 reading (day 0). Tenfold final concentration of test compounds and Cisplatin were prepared in cell culture media (work dilutions). Six μl of work dilution solutions were dispensed into the corresponding wells in 384-well plates to bring the total volume up to 60 μl. Conditions were tested in triplicate. The plates were then incubated at 37° C. for five days. For the day 0 reading, 30 μl of CTG and 6 μl cell culture medium were added to the day 0 plates, contents mixed for 2 min on a plate shaker, and the plates incubated for 10 min at room temperature in the dark. Luminescence was recorded on an EnVision Multi Label Reader (2104-0010A, PerkinElmer, USA).
(§4) Endpoint CTG reading (day 5). The amounts of cells in the plates was determined by endpoint CTG-test. Thirty μl of CTG were added to the 60 μl of cell culture per well, contents mixed for 2 min on a plate shaker, and the plates incubated for 10 min at room temperature in the dark. Luminescence was recorded on an EnVision Multi Label Reader.
(§5) Data analysis. Fifty percent growth inhibition concentrations (GI50) were calculated based on percentage of control data (untreated cells) from each cell line (TABLE 5 (this example) and TABLE 6). Curves were fitted using a nonlinear regression model with a sigmoidal dose response. Examples of obtained curves are depicted in FIG. 2A-2F.

[3] = tested on: HDFA (fibroblast); test: 5-day cell proliferation assay (CTG); format: cell-based; conditions: Homo sapiens, 120 h, Skin, highest tested concentration 10 μM
Description: as §1, §2, §3, §4, §5

[4] = tested on: HS 746.T; test: 5-day cell proliferation assay (CTG); format: cell-based; conditions: Homo sapiens, Hs746T, 120 h, Stomach/Gastric
Description: as §1, §2, §3, §4, §5

[5] = tested on: HS-5; test: 5-day cell proliferation assay (CTG); format: cell-based; conditions: Homo sapiens, HS5, 120 h; HS-5, 5-day cell proliferation
Description: as §1, §2, §3, §4, §5

[6] = tested on: HT-29; test: 5-day cell proliferation assay (CTG); format: cell-based; conditions: Homo sapiens, 120 h, HT-29, Colorectal
Description: as §1, §2, §3, §4, §5

[7] = tested on: MRC-5; test: 5-day cell proliferation assay (CTG); format: cell-based; conditions: Homo sapiens, MRC5, 120 h, MRC-5, Lung
Description: as §1, §2, §3, §4, §5

[8] = tested on: RPWE-1; test: 5-day cell proliferation assay (CTG); format: cell-based; conditions: Homo sapiens, 120 h, RPWE-1 (Table 6: RWPE-1), Prostate
Description: as §1, §2, §3, §4, §5

[9] = tested on: SNU-16; test: 5-day cell proliferation assay (CTG); format: cell-based; conditions: Homo sapiens, 120 h, SNU-16, Stomach/Gastric
Description: as §1, §2, §3, §4, §5

[10] = tested on: SNU-5; test: 5-day cell proliferation assay (CTG); format: cell-based; conditions: Homo sapiens, 120 h, SNU-5, Stomach/Gastric
Description: as §1, §2, §3, §4, §5

[11] = tested on: SW48; test: 5-day cell proliferation assay (CTG); format: cell-based; conditions: Homo sapiens, 120 h, SW48, Colorectal
Description: as §1, §2, §3, §4, §5

[12] = tested on: SW620; test: 5-day cell proliferation assay (CTG); format: cell-based; conditions: Homo sapiens, SW-620, 120 h, SW620, Colorectal
Description: as §1, §2, §3, §4, §5

[13] = tested on: SW948; test: 5-day cell proliferation assay (CTG); format: cell-based; conditions: Homo sapiens, 120 h, SW948, Colorectal
Description: as §1, §2, §3, §4, §5

[14] = tested on: HCT116 human colon cancer cells; test: Cell-derived xenograft mouse model for colorectal cancer (HCT116 CDX); format: in vivo; conditions: for T/C (tumor-to-control ratio, volume/volume): day 37
Description: (§6) Female BALB/c nude mice (8-9 weeks of age) were injected with HCT116 human colon cancer cells. The cells were inoculated subcutaneously into the left flank of 48 mice. When tumors reached a mean volume of approximately 100 mm^3, mice were randomly assigned to eight treatment groups of each six mice (TABLE 14). Body weights were measured three times weekly prior to the initiation of dosing and daily thereafter. Tumor burden was assessed by caliper measurement twice weekly. Dosing breaks were applied when tolerability issues arose (body weight loss>10%). The study was terminated four weeks post first dosing. The experiment was performed in the Crown Bioscience Ltd. (Beijing) testing facility (Ground Floor, Light Muller Building, Changping Sector of Zhongguancun Scientific Park, No. 21 Huoju Road, Changping District, Beijing, CHN).

[15] = tested on: MKN45 human gastric adenocarcinoma cells; test: Cell-derived xenograft mouse model for gastric cancer (MKN45 CDX); format: in vivo; conditions: p.o.; for Tumor Size day 29: MKN45 CDX, female BALB/c nude mice, Mean ± SEM; for T/C: day 29, tumor-to-control ratio (volume/volume)
Description: as §6, with “MKN45” for “HCT116”, “gastric adenocarcinoma” for “colon cancer”, “103” for “100”, “16).” for “14).”

SMILES	GI50 [1]	GI50 [2]	GI50 [3]	GI50 [4]	GI50 [5]	GI50 [6]	GI50 [7]	GI50 [8]	GI50 [9]	GI50 [10]	GI50 [11]	GI50 [12]	GI50 [13]	Tumor Size day 37 (Mean ± SEM) ([14]; 3 mg/kg, p.o. QD)	p vs. Group-2 (Avastin, 10 mg/kg, BIW) ([14]; 3 mg/kg, p.o. QD)	T/C (tumor-to-control ratio, volume/volume) ([14]; 3 mg/kg, p.o. QD)	Tumor Size day 37 (Mean ± SEM) ([14]; 6 mg/kg, p.o. QD)	p vs. Group-2 (Avastin, 10 mg/kg, BIW) ([14]; 6 mg/kg, p.o. QD)	T/C (tumor-to-control ratio, volume/volume) ([14]; 6 mg/kg, p.o. QD)	Tumor Size day 29 ([15]; 3 mg/kg, QD)	further results
CC(C)C[C@@H]1NCCN([C@@H](CC(C)C)C(=O)N2CCC3(C[C@@H]2C)OCC(CN2CCCC2)CO3)C1=O (stereo partly drawn) [Compound 258, (3S)-1-[(2S)-4-methyl-1-oxo-1-[(3s,6s,8S)-8-methyl-3-(pyrrolidin-1-ylmethyl)-1,5-dioxa-9-azaspiro[5.5]undec-an-9-yl]pentan-2-yl]-3-(2-methylpropyl)piper-azin-2-one (^≠), isomer Z]	1.5 nM	5 nM	> 10000 nM	8 nM	5 nM	4 nM	12 nM	4 nM	13 nM	4 nM	9 nM	4 nM	10 nM	436.2 ± 58.9 mm^3	Group-2 vs. Group-5, p = 0.028;	36.7%	253.2 ± 39.2 mm^3	Group-2 vs. Group-4, p = 0.001;	21.3%	428.0 ± 52.5 mm^3	Tumor Size day 37 (Mean ± SEM) ([14]; 20 mg/kg, p.o. BIW): 696.8 ± 93.7 mm^3; p vs. Group-2 (Avastin, 10 mg/kg, BIW) ([14]; 20 mg/kg, p.o. BIW): Group-2 vs. Group-3, p = 0.865;; T/C (tumor-to-control ratio, volume/volume) ([14]; 20 mg/kg, p.o. BIW): 58.7%; T/C ([15]; 3 mg/kg, QD): 36.0%; Tumor Size day 29 ([15]; 6 mg/kg, QD): 186.9 ± 17.3 mm^3; T/C ([15]; 6 mg/kg, QD): 15.7%; Tumor Size day 29 ([15]; 20 mg/kg, BIW): 763.4 ± 84.5 mm^3; T/C ([15]; 20 mg/kg, BIW): 64.2%
CC(C)C[C@@H]1NCCN([C@@H](CC(C)C)C(=O)N2CCC3(C[C@@H]2C)OCC(CN2CCC4(CC2)CC4)CO3)C1=O (stereo partly drawn) [Compound 279, (3S)-1-[(2S)-4-methyl-1-oxo-1-[(3s,6s,8S)-3-{6-azaspiro[2.5]octan-6-ylmethyl}-8-methyl-1,5-dioxa-9-azaspiro[5.5]undec-an-9-yl]pentan-2-yl]-3-(2-methylpropyl)piper-azin-2-one (^≠), isomer Z]	1 nM	3 nM	> 10000 nM	5 nM	3 nM	4 nM	10 nM	3 nM	10 nM	3 nM	6 nM	2 nM	3 nM	–	–	–	1064.0 ± 141.1 mm^3	Group-2 vs. Group-6, p = 0.070;	89.6%	–	–
CC(C)C[C@@H]1NCCN([C@@H](CC(C)C)C(=O)N2CCC3(C[C@@H]2C)OCC(CN2CCC2)CO3)C1=O (stereo partly drawn) [Compound 284, (3S)-1-[(2S)-4-methyl-1-oxo-1-[(3s,6s,8S)-3-(azetidin-1-ylmethyl)-8-methyl-1,5-dioxa-9-azaspiro[5.5]undec-an-9-yl]pentan-2-yl]-3-(2-methylpropyl)piper-azin-2-one (^≠), isomer Z]	1.5 nM	9 nM	> 10000 nM	14 nM	10 nM	7 nM	25 nM	10 nM	22 nM	6 nM	14 nM	7 nM	12 nM	827.4 ± 125.7 mm^3	Group-2 vs. Group-8, p = 0.509;	69.7%	942.0 ± 114.9 mm^3	Group-2 vs. Group-7, p = 0.165;	79.3%	709.0 ± 55.6 mm^3	T/C ([15]; 3 mg/kg, QD): 59.6%; Tumor Size day 29 ([15]; 6 mg/kg, QD): 592.6 ± 109.7 mm^3; T/C ([15]; 6 mg/kg, QD): 49.8%
